The compounds below were run on H1N1 (influenza A/New Caledonia/20/99) (assay: microbe, parasite or virus in culture). Conditions: H1N1, A549, 48 h.
Format: cell-based

How did the IC50 turn out when `COC1=CC(c2cc3c([nH]2)CCCC3)=N/C1=C\c1[nH]c(C)cc1C` [Compound 3, (Z)-2-(2-((3,5-dimethyl-1H-pyrrol-2-yl)methylene)-3-methoxy-2H-pyrrol-5-yl)-4,5,6,7-tetrahydro-1H-indole] was run?
The IC50 was 56 nM.

`COC1=CC(c2cc3c([nH]2)CCCC3C)=N/C1=C\c1[nH]c(C)cc1C` (centres unmarked) [Compound 7, (Z)-2-(2-((3,5-dimethyl-1H-pyrrol-2-yl)methylene)-3-methoxy-2H-pyrrol-5-yl)-4-methyl-4,5,6,7-tetrahydro-1H-indole] was tested. Which IC50 did it give?
Its IC50 is 75 nM.

For `COC1=CC(c2cc3c([nH]2)CCC(C)C3)=N/C1=C\c1[nH]c(C)cc1C` (centres unmarked) [Compound 19, (Z)-2-(2-((3,5-dimethyl-1H-pyrrol-2-yl)methylene)-3-methoxy-2H-pyrrol-5-yl)-5-methyl-4,5,6,7-tetrahydro-1H-indole], which IC50 is on record?
The IC50 was 91 nM.

Which IC50 does the source give for `COC1=CC(c2cc3c([nH]2)CCCC32CC2)=N/C1=C\c1[nH]c(C)cc1C` [Compound 23, (Z)-2′-(2-((3,5-dimethyl-1H-pyrrol-2-yl)methylene)-3-methoxy-2H-pyrrol-5-yl)-1′,5′,6′,7′-tetrahydrospiro[cyclopropane-1,4′-indole]] here?
The IC50 was 77 nM.

Which IC50 does the source give for `COC1=CC(c2cc3ccccc3[nH]2)=N/C1=C\c1[nH]c(C)cc1C` [Obatoclax, reference compound] here?
Its IC50 is 91 nM.

From patent publication US20240002370A1, “PYRROLE-TYPE COMPOUNDS AND USES THEREOF FOR TREATING VIRAL INFECTIONS” (ENYO PHARMA, priority 2020, published 2024)
